From patent US20250302815A1, “PROTEIN TYROSINE PHOSPHATASE TARGETING LIGANDS” (CALICO LIFE SCIENCES LLC, priority 2021, published 2025) come the findings set out here.

Each structure is given as a SMILES string.

In one assay the target is T1, PTPN2 (B16F10.4 cells) (Mus musculus, UniProt Q06180).
T1 construct: HiBiT; host or cells: B16F10.4
T1 sequence (Q06180 1-406): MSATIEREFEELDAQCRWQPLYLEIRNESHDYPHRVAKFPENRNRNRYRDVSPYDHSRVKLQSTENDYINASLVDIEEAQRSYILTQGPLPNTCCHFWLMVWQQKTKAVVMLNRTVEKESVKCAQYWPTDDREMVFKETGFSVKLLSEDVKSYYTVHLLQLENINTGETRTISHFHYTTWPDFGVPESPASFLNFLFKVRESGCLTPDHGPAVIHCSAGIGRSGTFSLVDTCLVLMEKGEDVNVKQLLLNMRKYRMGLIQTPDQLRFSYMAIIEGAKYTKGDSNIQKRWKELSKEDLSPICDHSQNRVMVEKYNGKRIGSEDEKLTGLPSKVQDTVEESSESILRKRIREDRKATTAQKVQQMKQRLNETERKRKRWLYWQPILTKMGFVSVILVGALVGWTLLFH
Nature of the assay: HiBiT Degradation B16F10.4 PTPN2. The note with it: 24.0 hours. It counts as cell-based. (In general: The HiBiT peptide binds its large partner to form an active luciferase.)

The target in assay [1] is T2, PTPN2 (HiBIT-PTPN2 in 293T.109 cells) (Homo sapiens, UniProt P17706).
T2 construct: expressed in transfected cells; host or cells: 293T.109 (293T WT from ATCC)
T2 sequence (P17706 1-415): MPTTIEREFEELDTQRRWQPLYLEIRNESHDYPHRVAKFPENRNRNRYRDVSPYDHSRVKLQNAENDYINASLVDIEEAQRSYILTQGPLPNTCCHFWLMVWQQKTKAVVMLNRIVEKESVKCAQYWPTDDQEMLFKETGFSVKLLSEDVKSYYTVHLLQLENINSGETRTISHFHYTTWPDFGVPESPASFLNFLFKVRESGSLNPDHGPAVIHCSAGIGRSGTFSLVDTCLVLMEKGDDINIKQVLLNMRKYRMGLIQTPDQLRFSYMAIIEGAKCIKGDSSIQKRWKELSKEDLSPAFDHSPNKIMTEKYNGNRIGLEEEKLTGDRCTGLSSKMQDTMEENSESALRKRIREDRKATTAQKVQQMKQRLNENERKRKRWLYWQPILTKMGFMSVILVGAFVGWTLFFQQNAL
The assay can be described thus: HiBiT Degradation 293T.109 PTPN2 (Nano-Glo HiBiT Lytic Assay). The note with it: 24.0 hours. It counts as cell-based. A digest of the protocol: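 Degradation read-out: lytic HiBiT luminescence after 24 h treatment (37 °C, 5% CO2) of 5000 293T cells per well expressing HiBiT-fused PTPN2 from an N-terminal tag. Dosing was 11 points, half-log steps down from 10 μM, in duplicate; vehicle-treated and no-reagent wells served as controls.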

With `Cn1c(=O)n(C2CCC(=O)NC2=O)c2ccc(-c3ccc(CC(=O)Nc4cccc(CS(=O)(=O)N5CC[C@H](Nc6cccc(-c7sc(C(=O)O)c(OCC(=O)O)c7Cl)c6)CC5(C)C)c4)cc3F)cc21` (stereo partly drawn) [Example 178, 3-(carboxymethoxy)-4-chloro-5-(3-(((4S)-1-((3-(2-(4-(1-(2,6-dioxopiperidin-3-yl)-3-methyl-2-oxo-2,3-dihydro-1H-benzo[d]imidazol-5-yl)-3-fluorophenyl)acetamido)benzyl)sulfonyl)-2,2-dimethylpiperidin-4-yl)amino)phenyl)thiophene-2-carboxylic acid], the DC50 (on PTPN2 (B16F10.4 cells); in assay [1]) was 50 to 200 nM each time.
With `O=C(O)COc1c(C(=O)O)sc(-c2cccc(NC3CCN(S(=O)(=O)Cc4cccc(NC(=O)CNc5ccc6c(c5)CN(C5CCC(=O)NC5=O)C6=O)c4)CC3)c2)c1Cl` (centres unmarked) [Example 36, 3-(carboxymethoxy)-4-chloro-5-[3-[[1-[[3-[[2-[[2-(2,6-dioxo-3-piperidyl)-1-oxo-isoindolin-5-yl]amino]acetyl]amino]phenyl]methylsulfonyl]-4-piperidyl]amino]phenyl]thiophene-2-carboxylic acid], the DC50 (on PTPN2 (B16F10.4 cells); in assay [1]) was 200 to 1000 nM each time.
With `Cn1c(=O)n(C2CCC(=O)NC2=O)c2ccc(N3CC(OC(=O)Nc4cccc(CS(=O)(=O)N5CC[C@H](Nc6cccc(-c7sc(C(=O)O)c(OCC(=O)O)c7Cl)c6)CC5(C)C)c4)C3)cc21` (some centres unmarked) [Example 136], the values for the DC50 (on PTPN2 (B16F10.4 cells); in assay [1]) were at least 1000 nM and 200 to 1000 nM, respectively.
As for `Cn1c(=O)n(C2CCC(=O)NC2=O)c2ccc(C#CCNC(=O)Nc3cccc(CS(=O)(=O)N4CC[C@H](Nc5cccc(-c6sc(C(=O)O)c(OCC(=O)O)c6Cl)c5)CC4(C)C)c3)cc21` (stereo partly drawn) [Example 91, 3-(carboxymethoxy)-4-chloro-5-(3-(((4S)-1-((3-(3-(3-(1-(2,6-dioxopiperidin-3-yl)-3-methyl-2-oxo-2,3-dihydro-1H-benzo[d]imidazol-5-yl)prop-2-yn-1-yl)ureido)benzyl)sulfonyl)-2,2-dimethylpiperidin-4-yl)amino)phenyl)thiophene-2-carboxylic acid], the DC50 (at PTPN2 (B16F10.4 cells); in assay [1]) was 50 to 200 nM in each case.
As to `Cn1c(=O)n(C2CCC(=O)NC2=O)c2ccc(N3CCC4(CC3)CN(C(=O)Nc3cccc(CS(=O)(=O)N5CCC(Nc6cccc(-c7sc(C(=O)O)c(OCC(=O)O)c7Cl)c6)CC5)c3)C4)cc21` (centres unmarked) [Example 102, 3-(carboxymethoxy)-4-chloro-5-[3-[[1-[[3-[[7-[1-(2,6-dioxo-3-piperidyl)-3-methyl-2-oxo-benzimidazol-5-yl]-2,7-diazaspiro[3.5]nonane-2-carbonyl]amino]phenyl]methylsulfonyl]-4-piperidyl]amino]phenyl]thiophene-2-carboxylic acid], the DC50 (on PTPN2 (B16F10.4 cells); in assay [1]) was 50 to 200 nM each time.
In the case of `CC1(C)C[C@@H](Nc2cccc(-c3sc(C(=O)O)c(OCC(=O)O)c3Cl)c2F)CCN1S(=O)(=O)Cc1ccc(F)c(NC(=O)C2CN(C(=O)CNc3cccc4c3CN(C3CCC(=O)NC3=O)C4=O)C2)c1` (stereo partly drawn) [Example 148, 3-(carboxymethoxy)-4-chloro-5-[3-[[(4S)-1-[[3-[[1-[2-[[2-(2,6-dioxo-3-piperidyl)-1-oxo-isoindolin-4-yl]amino]acetyl]azetidine-3-carbonyl]amino]-4-fluoro-phenyl]methylsulfonyl]-2,2-dimethyl-4-piperidyl]amino]-2-fluoro-phenyl]thiophene-2-carboxylic acid], the DC50 (usually the concentration at which degradation of the target reaches its halfway point) on PTPN2 (B16F10.4 cells) was 50 to 200 nM; in assay [1], below 50 nM.
For the compound `Cn1c(=O)n(C2CCC(=O)NC2=O)c2ccc(N3CCC(CCNCCNc4cccc(CS(=O)(=O)N5CC[C@H](Nc6cccc(-c7sc(C(=O)O)c(OCC(=O)O)c7Cl)c6)CC5(C)C)c4)CC3)cc21` (stereo partly drawn) [Example 237, 3-(carboxymethoxy)-4-chloro-5-[3-[[(4S)-1-[[3-[2-[2-[1-[1-(2,6-dioxo-3-piperidyl)-3-methyl-2-oxo-benzimidazol-5-yl]-4-piperidyl]ethylamino]ethylamino]phenyl]methylsulfonyl]-2,2-dimethyl-4-piperidyl]amino]phenyl]thiophene-2-carboxylic acid], the DC50 at PTPN2 (B16F10.4 cells) is 50 to 200 nM; in assay [1] it was below 50 nM.
